Assays:
[1] = reported by Chilcote and Sinha, ARVO 2012; cited from earlier work
[2] = literature / authorised label; cited from earlier work
[3] = Plasma concentration after oral administration; assay type: in vivo; details: following administration of a dosage amount of at least about 60 mg
[4] = BCS classification (ICH M9); assay type: physicochemical; details: ICH guideline M9
Excerpt: BCS class IV drugs are considered to be poorly soluble and poorly permeable meaning that they are likely to have poor oral bioavailability and/or the oral absorption may be so low that they cannot be given by the oral route. Due to their numerous unfavourable characteristics, BCS class IV drugs are particularly challenging to formulate as oral dosage forms and in particular as ODTs. Indeed, ODTs of BCS class IV drugs are not generally known in the art.

[5] = Phase 1 trial: single-dose 3-way crossover pharmacokinetic study, ODT vs film-coated tablets; assay type: in vivo, human; details: single doses of 500 mg or 600 mg in ODT or FCT, healthy adult participants
Description: This study was an open label, randomized, single-dose, 3-way crossover pharmacokinetic study.
Thirty-six (36) healthy, adult, male and female subjects were enrolled.
The film coated tablets were those used in the phase 2 study described herein (NCT04208412).
There was a washout period of at least 4 days between the dose in Period 1 and Period 2 and the dose in Period 2 and Period 3.
An analysis of variance (ANOVA) was performed on the natural log (ln) transformed AUC0-t, AUC0-inf, AUC% extrap and Cmax, using the appropriate statistical procedure.

[6] = swallowable tablet, NCT04208412; cited from earlier work

For N=C(N)c1ccc(CNC(=O)c2cnn(Cc3ccccc3)c2)cc1 [ASP-440], the oral availability [1] is listed as “poor oral availability”.

For N#Cc1cccc([C@@H](NCC2CC2)c2ccc(F)c(NC(=O)c3cc(C(F)(F)F)nn3-c3cccc(CN)c3)c2)c1 [Berotralstat, reference compound], the reported adverse reactions [2] is given as “higher doses were associated with more gastrointestinal adverse effects”.

In the case of COCc1nn(Cc2ccc(Cn3ccccc3=O)cc2)cc1C(=O)NCc1nccc(OC)c1F [KVD900, N-[(3-fluoro-4-methoxypyridin-2-yl)methyl]-3-(methoxymethyl)-1-({4-[(2-oxopyridin-1-yl)methyl]phenyl}methyl) pyrazole-4-carboxamide], the “concentration of KVD900 in plasma” value [3] is reported as “at least 500 ng/ml”, the BCS classification [4] is reported as “BCS class IV” and the safety and tolerability [5] is reported as “well tolerated”. For the same molecule, the “phase 2 efficacy and safety endpoints” value [6] was “met all of its phase 2 efficacy and safety endpoints”.

In the case of Ecallantide, the reported adverse reactions [2] is listed as “risks of anaphylactic reactions”.

B1: lanadelumab: recombinant fully human IgG1 kappa light chain monoclonal antibody, plasma kallikrein inhibitor (antibody, chains of the INN, looked up, V domains shown)
VH: EVQLLESGGGLVQPGGSLRLSCAASGFTFSHYIMMWVRQAPGKGLEWVSGIYSSGGITVYADSVKGRFTISRDNSKNTLYLQMNSLRAEDTAVYYCAYRRIGVPRRDEFDIWGQGTMVTVSS
VL: DIQMTQSPSTLSASVGDRVTITCRASQSISSWLAWYQQKPGKAPKLLIYKASTLESGVPSRFSGSGSGTEFTLTISSLQPDDFATYYCQQYNTYWTFGQGTKVEIK
In the case of B1, the reported adverse reactions [2] is given as “hypersensitivity, injection site pain, injection site erythema, and injection site bruising”.
